From patent US10316017B2, “COT modulators and methods of use thereof” (Gilead Sciences, Inc., priority 2015, dated 2019)

Key:
[1] = tested on: TNFα production in LPS-stimulated human monocytes; experiment: Cot Monocyte TNFα Cell Based Assay; details: Homo sapiens, Monocyte, LPS-stimulated human monocytes, TNFα TR-FRET; read-out: EC50 TNF
Procedure, shortened: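 TR-FRET read-out of total secreted TNFα, normalized as % control (unstimulated = 0%, LPS-stimulated = 100%). Cells (5,000/well) were exposed to compound 1 h at 37 °C, then to 50 pg/ml LPS for a further 4 h.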

[2] = molecular target: T1, human Cot catalytic domain (30-397 amino acids) (Homo sapiens, UniProt P41279); experiment: High Throughput Cot Biochemical Assay (KinEASE TR-FRET); details: Cot KinEASE TR-FRET, 400 μM ATP; read-out: IC50 HTRF
T1 construct: Purified recombinant human Cot catalytic domain (30-397 amino acids) was purchased from Cama Biosciences; purchased Cama Biosciences (so in the source)
Procedure, shortened: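 TR-FRET readout: Eu-labeled phospho-specific antibody binds XL665-tagged STK3 peptide after phosphorylation by Cot (aa 30-397, 5 nM). Conditions: 400 μM ATP, 1 μM peptide, MOPS pH 7.0 buffer with MgOAc, DTT, BSA, NP-40, glycerol; 0.1% DMSO.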

T1 sequence (P41279 30-397): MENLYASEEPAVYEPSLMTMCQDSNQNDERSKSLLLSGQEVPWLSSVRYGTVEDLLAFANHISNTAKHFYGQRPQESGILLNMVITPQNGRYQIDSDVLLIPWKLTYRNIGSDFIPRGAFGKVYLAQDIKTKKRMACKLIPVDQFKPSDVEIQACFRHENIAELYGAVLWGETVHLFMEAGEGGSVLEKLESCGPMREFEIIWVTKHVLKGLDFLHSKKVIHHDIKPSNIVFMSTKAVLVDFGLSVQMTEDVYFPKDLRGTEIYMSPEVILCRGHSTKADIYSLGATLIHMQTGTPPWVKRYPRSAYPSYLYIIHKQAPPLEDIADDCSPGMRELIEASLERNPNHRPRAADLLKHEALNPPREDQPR

Row | SMILES | EC50 [1] [nM] | IC50 [2] [nM]
1 | Cc1c(C#N)cccc1[C@H](Nc1cc(Cl)c2ncc(C#N)c(NCC(C)(C)C(F)(F)F)c2c1)c1cn(C2(C3CC3)CC2)nn1 [Example 1105, (S)-6-(((1-([1,1'-bi(cyclopropan)]-1-yl)-1H-1,2,3-triazol-4-yl)(3-cyano-2-methylphenyl)methyl)amino)-8-chloro-4-((3,3,3-trifluoro-2,2-dimethylpropyl)amino)quinoline-3-carbonitrile] | 90 | 5
2 | [2H]C(Nc1cc(C#N)c2ncc(C#N)c(NCC(C)(C)C)c2c1)(c1cn(C2(C(F)F)CC2)nn1)c1ccccc1Cl (stereo not drawn) [Example 1111, 6-(((2-chlorophenyl)(1-(1-(difluoromethyl)cyclopropyl)-1H-1,2,3-triazol-4-yl)methyl-d)amino)-4-(neopentylamino)-quinoline-3,8-dicarbonitrile] | 98 | 13
3 | CC(C)(C)CNc1c(C#N)cnc2c(Cl)cc(N[C@H](c3cn(C4(C(F)(F)F)CC4)nn3)c3cccc(C(=O)O)c3F)cc12 [Example 1112, (S)-3-(((8-chloro-3-cyano-4-(neopentylamino)quinolin-6-yl)amino)(1-(1-(trifluoromethyl)cyclopropyl)-1H-1,2,3-triazol-4-yl)methyl)-2-fluorobenzoic acid] | ≥ 1000 | 76
4 | CN(C)C(=O)c1cccc([C@H](Nc2cc(Cl)c3ncc(C#N)c(NCC(C)(C)C)c3c2)c2cn(C3(C(F)(F)F)CC3)nn2)c1F [Example 1113, (S)-3-(((8-chloro-3-cyano-4-(neopentylamino)quinolin-6-yl)amino)(1-(1-(trifluoromethyl)cyclopropyl)-1H-1,2,3-triazol-4-yl)methyl)-2-fluoro-N,N-dimethylbenzamide] | 444 | 22
5 | CNC(=O)c1cccc([C@H](Nc2cc(Cl)c3ncc(C#N)c(NCC(C)(C)C)c3c2)c2cn(C3(C(F)(F)F)CC3)nn2)c1F [Example 1114, (S)-3-(((8-chloro-3-cyano-4-(neopentylamino)quinolin-6-yl)amino)(1-(1-(trifluoromethyl)cyclopropyl)-1H-1,2,3-triazol-4-yl)methyl)-2-fluoro-N-methylbenzamide] | 408 | 5
6 | CC(C)(C)CNc1c(C#N)cnc2c(Cl)cc(N[C@H](c3cn(C4(C(F)(F)F)CC4)nn3)c3cccc(C(N)=O)c3F)cc12 [Example 1115, (S)-3-(((8-chloro-3-cyano-4-(neopentylamino)quinolin-6-yl)amino)(1-(1-(trifluoromethyl)cyclopropyl)-1H-1,2,3-triazol-4-yl)methyl)-2-fluorobenzamide] | 176 | 6
7 | CNC(=O)c1cc([C@H](Nc2cc(Cl)c3ncc(C#N)c(NCC(C)(C)C)c3c2)c2cn(C3(C(F)(F)F)CC3)nn2)ccc1F [Example 1116, (S)-5-(((8-chloro-3-cyano-4-(neopentylamino)quinolin-6-yl)amino)(1-(1-(trifluoromethyl)cyclopropyl)-1H-1,2,3-triazol-4-yl)methyl)-2-fluoro-N-methylbenzamide] | ≥ 1000 | 38
8 | CC(C)(C)CNc1c(C#N)cnc2c(Cl)cc(N[C@@H](c3ccc(F)c(C(N)=O)c3)c3cn(C4(C(F)(F)F)CC4)nn3)cc12 [Example 1117, (S)-5-(((8-chloro-3-cyano-4-(neopentylamino)quinolin-6-yl)amino)(1-(1-(trifluoromethyl)cyclopropyl)-1H-1,2,3-triazol-4-yl)methyl)-2-fluorobenzamide] | 561 | 29
9 | Cc1c(-c2ccccn2)cccc1[C@H](Nc1cc(Cl)c2ncc(C#N)c(NCC(C)(C)C)c2c1)c1cn(C2(C(F)(F)F)CC2)nn1 [Example 1118, (S)-8-chloro-6-(((2-methyl-3-(pyridin-2-yl)phenyl)(1-(1-(trifluoromethyl)cyclopropyl)-1H-1,2,3-triazol-4-yl)methyl)amino)-4-(neopentylamino)quinoline-3-carbonitrile] | 921 | 28
10 | Cc1c(-c2cn(C)cn2)cccc1[C@H](Nc1cc(Cl)c2ncc(C#N)c(NCC(C)(C)C)c2c1)c1cn(C2(C(F)(F)F)CC2)nn1 [Example 1119, (S)-8-chloro-6-(((2-methyl-3-(1-methyl-1H-imidazol-4-yl)phenyl)(1-(1-(trifluoromethyl)cyclopropyl)-1H-1,2,3-triazol-4-yl)methyl)amino)-4-(neopentylamino)quinoline-3-carbonitrile] | 351 | 11
11 | CC(C)(C)CNc1c(C#N)cnc2c(C#N)cc(N[C@@H](c3ccccc3)c3cn(C45CC(C4)C5)nn3)cc12 [Example 1124, (S)-6-(((1-(bicyclo[1.1.1]pentan-1-yl)-1H-1,2,3-triazol-4-yl)(phenyl)methyl)amino)-4-(neopentylamino)quinoline-3,8-dicarbonitrile] | 138 | 4

Further molecules by falling EC50 [1], results first:

Row | EC50 [1] [nM] | IC50 [2] [nM] | SMILES
12 | 88 | 6 | Cc1c(-c2cncn2C)cccc1[C@H](Nc1cc(Cl)c2ncc(C#N)c(NCC(C)(C)C)c2c1)c1cn(C2(C(F)(F)F)CC2)nn1 [Example 1120, (S)-8-chloro-6-(((2-methyl-3-(1-methyl-1H-imidazol-5-yl)phenyl)(1-(1-(trifluoromethyl)cyclopropyl)-1H-1,2,3-triazol-4-yl)methyl)amino)-4-(neopentylamino)quinoline-3-carbonitrile]
13 | 79 | 26 | Cc1nnc(C2(n3cc([C@@H](Nc4cc(Cl)c5ncc(C#N)c(NCC(C)(C)C)c5c4)c4ccccc4Cl)nn3)CC2)o1 [Example 1110, (S)-8-chloro-6-(((2-chlorophenyl)(1-(1-(5-methyl-1,3,4-oxadiazol-2-yl)cyclopropyl)-1H-1,2,3-triazol-4-yl)methyl)amino)-4-(neopentylamino)quinoline-3-carbonitrile]
14 | 76 | 5 | Cc1c(C#N)cccc1[C@H](Nc1cc(Cl)c2ncc(C#N)c(NCC(C)(C)C(F)(F)F)c2c1)c1cn([C@@H](C)CF)nn1 [Example 1106, 8-chloro-6-(((S)-(3-cyano-2-methylphenyl)(1-((S)-1-fluoropropan-2-yl)-1H-1,2,3-triazol-4-yl)methyl)amino)-4-((3,3,3-trifluoro-2,2-dimethylpropyl)amino) quinoline-3-carbonitrile]
15 | 65 | 3 | Cc1c(C#N)cccc1[C@H](Nc1cc(Cl)c2ncc(C#N)c(NCC(C)(C)C(F)(F)F)c2c1)c1cn(C23CC(C2)C3)nn1 [Example 1107, (S)-6-(((1-(bicyclo[1.1.1]pentan-1-yl)-1H-1,2,3-triazol-4-yl)(3-cyano-2-methylphenyl)methyl)amino)-8-chloro-4-((3,3,3-trifluoro-2,2-dimethylpropyl)amino) quinoline-3-carbonitrile]
16 | 59 | 2 | Cc1c(-c2ccnnc2)cccc1[C@H](Nc1cc(Cl)c2ncc(C#N)c(NCC(C)(C)C)c2c1)c1cn(C2(C(F)(F)F)CC2)nn1 [Example 1121, (S)-8-chloro-6-(((2-methyl-3 (pyridazin-4-yl)phenyl)(1-(1-(trifluoromethyl)cyclopropyl)-1H-1,2,3-triazol-4-yl)methyl)amino)-4-(neopentylamino)quinoline-3-carbonitrile]
17 | 57 | 5 | Cc1c(C#N)cccc1[C@H](Nc1cc(Cl)c2ncc(C#N)c(NCC(C)(C)C)c2c1)c1cn(C2(C3CC3)CC2)nn1 [Example 1109, (S)-6-(((1-([1,1'-bi(cyclopropan)]-1-yl)-1H-1,2,3-triazol-4-yl)(3-cyano-2-methylphenyl)-methyl)amino)-8-chloro-4-(neopentylamino)quinoline-3-carbonitrile]
18 | 51 | 4 | Cc1c(C#N)cccc1[C@H](Nc1cc(C#N)c2ncc(C#N)c(NCC(C)(C)C(F)(F)F)c2c1)c1cn(C2(C(F)F)CC2)nn1 [Example 1125, (S)-6-(((3-cyano-2-methylphenyl)(1-(1-(difluoromethyl)cyclopropyl)-1H-1,2,3-triazol-4-yl)methyl)amino)-4-((3,3,3-trifluoro-2,2-dimethylpropyl)amino)quinoline-3,8-dicarbonitrile]
19 | 47 | 2 | Cc1c(-c2cncn2C)cccc1[C@H](Nc1cc(Cl)c2ncc(C#N)c(NCC(C)(C)C)c2c1)c1cn(C2(C(F)F)CC2)nn1 [Example 1122, (S)-8-chloro-6-(((1-(1-(difluoromethyl)cyclopropyl)-1H-1,2,3-triazol-4-yl)(2-methyl-3-(1-methyl-1H-imidazol-5-yl)phenyl)methyl)amino)-4-(neopentylamino)quinoline-3-carbonitrile]
20 | 42 | 2 | Cc1c(-c2ccnnc2)cccc1[C@H](Nc1cc(Cl)c2ncc(C#N)c(NCC(C)(C)C)c2c1)c1cn(C2(C(F)F)CC2)nn1 [Example 1123, (S)-8-chloro-6-(((1-(1-(difluoromethyl)cyclopropyl)-1H-1,2,3-triazol-4-yl)(2-methyl-3-(pyridazin-4-yl)phenyl)methyl)amino)-4-(neopentylamino)quinoline-3-carbonitrile]
21 | 31 | 4 | Cc1c(C#N)cccc1[C@H](Nc1cc(Cl)c2ncc(C#N)c(NCC(C)(C)C)c2c1)c1cn(C23CC(C2)C3)nn1 [Example 1108, (S)-6-(((1-(bicyclo[1.1.1]pentan-1-yl)-1H-1,2,3-triazol-4-yl)(3-cyano-2-methylphenyl)methyl)amino)-8-chloro-4-(neopentylamino) quinoline-3-carbonitrile]
